The target in data set [1] is T1, CB1 (Homo sapiens (Human), UniProt P21554). In words: CB1 activated Gαq16-coupled intracellular calcium mobilization assay in CHO-K1 cells. The class given is cell-based. As to conditions: apparent affinity (Ke). Background: Calcium assays in cells follow changes in intracellular calcium, usually with a dye or a luminescent sensor.
For data set [2], the target named is T1, CB1. Briefly: Radioligand displacement of [3H]SR141716 at CB1. The class given is binding. As to conditions: radioligand [3H]SR141716; read-out: Ki (nM) v. [3H]SR141716 at CB1. For orientation: Displacement assays read how much labelled ligand stays bound in the presence of the test substance.
Another data set concerns the target CB2 (Homo sapiens (Human), UniProt P34972). Briefly: Displacement of [3H]CP55940 in membranes of CHO-K1 cells over-expressing CB2. The class given is binding. The conditions noted are these: radioligand [3H]CP55940, CHO-K1 membranes; read-out: Ki (nM) v. [3H]CP55940 at CB2.
The test system of another data set is MDCK-MDR. Briefly: MDCK-MDR transport (apical to basal). The class given is in vitro ADME.
For data set [3], the target named is T1, CB1. In words: Displacement of [3H]CP55940 in membranes of CHO-K1 cells over-expressing CB1.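 For all read-outs here: reported values are averages of 3-6 independent measurements.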 As to conditions: for Binding Selectivity using CP55940 Displacement: CB1 versus CB2; for Ki: read-out: Ki (nM) v. [3H]CP55940 at CB1, radioligand [3H]CP55940, CHO-K1 membranes.
Procedure: Further characterization of select compounds was performed using radioligand displacement of [3H]1 and equilibrium dissociation constant (Ki) values were determined. Selectivity of these compounds at CB1 versus CB2 was also determined by obtaining Ki values at either receptor using displacement of [3H]CP55940 in membranes of CHO-K1 cells over-expressing either receptor. Data reported are average values from 3-6 measurements.
Selectivity against the CB2 receptor was determined by comparing the compound displacement of radiolabeled CP55940, which is a cannabinoid known to act as a full agonist at both CB1 and CB2 receptors.
A short description of data set [4]: Brain penetration / plasma and brain levels after oral dosing in SD rats. The conditions noted are these: Sprague-Dawley, rat, oral 10 mg/kg. The class given is in vivo, Sprague-Dawley (SD) rats. The method, then: However, unlike otenabant, this sulfonamide is a peripherally selective compound. […] Select compounds were chosen for study to determine penetration into the CNS. Selected compounds were dosed orally at 10 mg/kg in SD rats. Brain and plasma samples were collected at 1, 2, 4, and 24 hours post dose and samples were analyzed by MS (Table 2, below). Since unperfused brains were used and the blood volume in unperfused brains is approximately 4%, a brain to plasma level of ≦0.04 represents no discernible penetration into the CNS.

Results on nine compounds are retold here after patent US9187480B2, “Peripherally restricted diphenyl purine derivatives” (RESEARCH TRIANGLE INSTITUTE, priority 2012, dated 2015).

In general, Ki refers to a dissociation constant, usually derived from enzyme kinetics or from competition with a known ligand. As usually defined, the Cmax is the maximum level reached in the sampled fluid or tissue.

Sequence of CB2 (P34972 whole entry): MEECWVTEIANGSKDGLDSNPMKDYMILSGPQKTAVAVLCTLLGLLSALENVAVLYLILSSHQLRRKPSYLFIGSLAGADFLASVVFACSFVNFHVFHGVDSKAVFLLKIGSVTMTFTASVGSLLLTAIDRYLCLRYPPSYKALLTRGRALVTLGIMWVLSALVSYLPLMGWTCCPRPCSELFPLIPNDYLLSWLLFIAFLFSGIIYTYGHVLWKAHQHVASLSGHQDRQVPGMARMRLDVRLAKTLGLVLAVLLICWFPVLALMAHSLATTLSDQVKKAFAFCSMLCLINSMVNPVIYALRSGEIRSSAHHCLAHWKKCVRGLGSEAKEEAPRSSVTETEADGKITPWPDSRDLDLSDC
T1 sequence (P21554 whole entry): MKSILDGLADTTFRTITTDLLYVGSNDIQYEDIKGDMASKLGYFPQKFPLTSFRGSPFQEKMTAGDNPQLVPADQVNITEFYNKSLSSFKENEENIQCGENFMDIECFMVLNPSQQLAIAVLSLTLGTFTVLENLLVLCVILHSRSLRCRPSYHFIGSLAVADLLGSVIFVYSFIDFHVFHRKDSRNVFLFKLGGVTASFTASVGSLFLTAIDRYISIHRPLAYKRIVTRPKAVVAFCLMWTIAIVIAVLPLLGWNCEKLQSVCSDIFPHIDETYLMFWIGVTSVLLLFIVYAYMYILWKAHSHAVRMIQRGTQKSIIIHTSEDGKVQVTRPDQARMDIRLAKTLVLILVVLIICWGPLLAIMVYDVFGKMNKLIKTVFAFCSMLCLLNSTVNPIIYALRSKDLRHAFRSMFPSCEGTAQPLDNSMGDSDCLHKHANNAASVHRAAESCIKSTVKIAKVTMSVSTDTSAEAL

As to `NC(=O)C1(c2ccccc2)CCN(c2ncnc3c2nc(-c2ccccc2Cl)n3-c2ccc(Cl)cc2)CC1`, the “Ke (nM) at CB1” value at CB1 [1] turned out to be 9 nM. The inhibitory constant (Ki) worked out at 0.28 nM on CB1 [2], 5510 nM on CB2 and 1.79 nM at CB1 [3]. For the same compound, the “% MDCK-MDR transport (Apical to Basal)” value in the data set on MDCK-MDR was found to be 5.6 ± 2.4%. Further, the “Binding Selectivity using CP55940 Displacement” value (“Binding Selectivity” below) at CB1 [3] was determined as 3076.5.
As to `CS(=O)(=O)NCC1CCC(CNc2ncnc3c2nc(-c2ccccc2Cl)n3-c2ccc(Cl)cc2)CC1` (stereo not drawn), the “Ke (nM) at CB1” value on CB1 [1] is 201.00 nM. For the same compound, the inhibition constant Ki at CB1 [2] was found to be 44.5 nM; on CB2, 2230 nM; at CB1 [3] it was 258 nM. In addition, in the data set with MDCK-MDR, the “% MDCK-MDR transport (Apical to Basal)” value was >50%. Further, the “Binding Selectivity” value on CB1 [3] came out at 8.6.
Consider `NS(=O)(=O)NCC1CCC(CNc2ncnc3c2nc(-c2ccccc2Cl)n3-c2ccc(Cl)cc2)CC1` (stereo not drawn), for which the “Ke (nM) at CB1” value on CB1 [1] came out at 549.0 nM. Further, the Ki is 94.5 nM on CB1 [2], 10700 nM at CB2 and 355 nM on CB1 [3]. In addition, the “Binding Selectivity” value on CB1 [3] is reported as 30.2.
As for `CC(C)(C)OC(=O)NC1(c2ccccc2)CCN(c2ncnc3c2nc(-c2ccccc2Cl)n3-c2ccc(Cl)cc2)CC1`, the “Ke (nM) at CB1” value on CB1 [1] amounted to 3.93 nM. Also, the figures for the inhibitory constant (Ki) at CB2 and at CB1 [3] were 13900 nM and 7.12 nM, respectively. Moreover, the “% MDCK-MDR transport (Apical to Basal)” value with MDCK-MDR is on record as <1%. Moreover, at CB1 [3], the “Binding Selectivity” value was 1959.
The corresponding values for `CC(C)(C)NC(=O)NC1(c2ccccc2)CCN(c2ncnc3c2nc(-c2ccccc2Cl)n3-c2ccc(Cl)cc2)CC1` are 19.17 nM, 20000 nM, 25.5 nM, <1% and 784.
The corresponding values for `CC(=O)NC1(c2ccccc2)CCN(c2ncnc3c2nc(-c2ccccc2Cl)n3-c2ccc(Cl)cc2)CC1` are 10.31 nM, 726 nM, 6 nM, 6% and 121.
The corresponding values for `CC(C)(C)NC(=O)C1(c2ccccc2)CCN(c2ncnc3c2nc(-c2ccccc2Cl)n3-c2ccc(Cl)cc2)CC1` are 2.2 nM, 20000 nM, 4.08 nM, <1% and 4902.
With `O=S1(=O)CCN(c2ncnc3c2nc(-c2ccccc2Cl)n3-c2ccc(Cl)cc2)CC1` [4-[8-(2-Chlorophenyl)-9-(4-chlorophenyl)-9H-purin-6-yl]-1λ^6,4-thiomorpholine-1,1-dione], the “Ke (nM) at CB1” value on CB1 [1] is 159.00 nM. Moreover, the Ki at CB1 [2] stood at 16.8 nM; on CB2, 834 nM; at CB1 [3], 32.1 nM. Besides, on CB1 [3], the “Binding Selectivity” value was found to be 26.0.
Consider `CS(=O)(=O)NC1(c2ccccc2)CCN(c2ncnc3c2nc(-c2ccccc2Cl)n3-c2ccc(Cl)cc2)CC1` [N-{1-[8-(2-Chlorophenyl)-9-(4-chlorophenyl)-9H-purin-6-yl]-4-phenylpiperidin-4-yl}methanesulfonamide], for which, at CB2, the inhibition constant (Ki) was 948 nM. The “% MDCK-MDR transport (Apical to Basal)” value in the data set with MDCK-MDR is recorded as <1%. The Kp in data set [4] (brain and plasma, range over sampling times, read-out: brain to plasma ratios) lay within 0.05 to 0.11. Further, the maximum concentration (Cmax) in data set [4] (in vivo) was found to be 1650 ng/g. Besides, on CB1 [3], the “Binding Selectivity” value amounted to 153 and the Ki is 6.21 nM.
